Molecules are shown by their SMILES.

Experiment [1] addresses T1, cloned human mu opioid receptor (Homo sapiens, UniProt P35372).
T1 construct: expressed in transfected cells
Put plainly: GTP-γ-S binding assay, antagonist mode (mu). As to conditions: functional antagonist potency vs DAMGO 1 micromolar; membranes, [35S]GTP-γ-S SPA; Cheng-Prusoff. The experiment is classed as biochemical. On the procedure: (§1) The functional antagonist potency (Kb) of the sample compounds was determined using the GTPγS binding assay. GTPgS-based functional assays provide an in vitro measure of the activity of opioid agonists and antagonists. Opioid reference compounds or test compound are incubated with membrane homogenate from cells expressing the cloned human mu, kappa or delta opioid receptor and radiolabeled [35S]GTPgS. If the compound activates the opioid receptor, an increase in the binding of radiolabeled GTPgS is observed. […] These tests provide an in vitro measurement of the activity of the compound at human opioid receptors.
(§2) An SPA-based GTP-γ-S assay format was developed based on previous opioid (Emmerson et al., J. Pharm Exp Ther 278, 1121, 1996; Horng et al., Society for Neuroscience Abstracts, 434.6, 2000) and muscarinic (DeLapp et al., JPET 289, 946, 1999) assay formats. Membranes were resuspended in 20 mM HEPES, 100 mM NaCl, 5 mM MgCl2, 1 mM DTT, and 1 mM EDTA. Fifty (50) […] of GTP-γ-[35S], compound, membrane suspension (20 microgram/well), and wheat germ agglutinin coated SPA beads (1 mg/well) were added to clear bottom 96 well assay plates. GDP ([…]) was added to the membrane solution prior to addition to the assay plates. Plates were sealed and incubated for four hours at room temperature then placed in a refrigerator overnight to allow the beads to settle. Signal stability at 4° C. was determined to be >60 hours. Plates were warmed to room temperature and counted in a Wallac Microbeta scintillation counter. For antagonist assays, specific agonists were added at the following concentrations: (MOR) DAMGO 1 micromolar, (DOR) DPDPE 30 nM, (KOR) U69593 300 nM. Kb's were determined by Cheng-Prusoff equation (see Cheng and Prusoff, Biochem. Pharmacol. 22, 3099, 1973).
In general terms: Binding of GTPγS marks nucleotide exchange on a G protein.

Experiment [2] concerns the target T2, cloned human delta opioid receptor (Homo sapiens, UniProt P41143).
T2 construct: expressed in transfected cells
Put plainly: GTP-γ-S binding assay, antagonist mode (delta). As to conditions: functional antagonist potency vs DPDPE 30 nM; membranes, [35S]GTP-γ-S SPA; Cheng-Prusoff. The experiment is classed as biochemical. On the procedure: as §1, §2

T1 sequence (P35372 whole entry): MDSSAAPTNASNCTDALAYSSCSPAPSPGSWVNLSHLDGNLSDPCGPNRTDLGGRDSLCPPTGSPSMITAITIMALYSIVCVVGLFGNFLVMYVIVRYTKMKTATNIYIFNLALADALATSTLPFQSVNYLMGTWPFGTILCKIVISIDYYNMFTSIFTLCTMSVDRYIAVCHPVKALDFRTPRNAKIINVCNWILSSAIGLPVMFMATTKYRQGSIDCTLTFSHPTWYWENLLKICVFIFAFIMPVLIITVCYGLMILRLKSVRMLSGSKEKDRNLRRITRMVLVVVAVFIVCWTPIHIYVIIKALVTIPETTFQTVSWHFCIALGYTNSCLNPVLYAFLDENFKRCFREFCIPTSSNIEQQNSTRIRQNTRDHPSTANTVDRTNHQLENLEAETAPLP
T2 sequence (P41143 whole entry): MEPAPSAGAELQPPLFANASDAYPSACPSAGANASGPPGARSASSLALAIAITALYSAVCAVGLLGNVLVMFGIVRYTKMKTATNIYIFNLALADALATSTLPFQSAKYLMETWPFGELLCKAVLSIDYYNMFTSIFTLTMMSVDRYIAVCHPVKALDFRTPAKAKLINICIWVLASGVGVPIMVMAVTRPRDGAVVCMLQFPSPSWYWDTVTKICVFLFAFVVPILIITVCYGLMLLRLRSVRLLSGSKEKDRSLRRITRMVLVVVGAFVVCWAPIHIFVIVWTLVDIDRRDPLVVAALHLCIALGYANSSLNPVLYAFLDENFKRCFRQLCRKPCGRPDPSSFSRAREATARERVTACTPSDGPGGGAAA

In general, Kb refers to the affinity of an antagonist, worked out from how it opposes an agonist. A lower Kb goes with a more potent antagonist. Regarding `CC(C)CCNCc1ccc(OCc2cccc(C(N)=O)c2)cc1` [Example 1, 3-{4-[(3-Methyl-butylamino)-methyl]-phenoxymethyl}-benzamide], the Kb in experiment [1] is above 21 nM; in experiment [2], above 41 nM.

With `CC(C)CCNCc1ccc(OCCc2ccc(C(N)=O)cc2)cc1` [Example 5, 4-(2-{4-[(3-Methyl-butylamino)-methyl]-phenoxy}-ethyl)-benzamide], the Kb was above 23 nM in experiment [1] and above 67 nM in experiment [2].

For `CC(C)CCNCc1ccc(OCc2ccc(C(N)=O)cc2)cc1` [Example 2, 4-{4-[(3-Methyl-butylamino)-methyl]-phenoxymethyl}-benzamide], the Kb amounted to 62.9 nM in experiment [1] and 337 nM in experiment [2].

`CC(C)CCNCc1ccc(COc2ccc(C(N)=O)cc2)cc1` [Example 4, 4-{4-[(3-Methyl-butylamino)-methyl]-benzyloxy}-benzamide]: the values for the Kb in experiment [1] and in experiment [2] were above 23 nM and above 67 nM, respectively.

The record behind these values is patent publication US7381750B2, “Amino-phenoxymethyl-benzamide opioid receptor antagonists” (Eli Lilly and Company, priority 2004, dated 2008).
